Test results published in the NIST ThermoML archive (doi:10.1021/je300590v).

Assay: xn = mol fraction of the nth substance listed
Settings: Vibrating tube method

N#N [nitrogen] + O=C=O
mass density [kg/m3]
Settings | 283.15 K | 293.15 K
1000 kPa, Gas, x2 = 0.9873 | – | 18.4
1001 kPa, Gas, x2 = 0.8785 | – | 18.8
2000 kPa, Gas, x2 = 0.8785 | – | 38.4
2000 kPa, Gas, x2 = 0.9873 | – | 39.5
3000 kPa, Gas, x2 = 0.8785 | – | 60.8
3001 kPa, Gas, x2 = 0.9873 | – | 64.3
4001 kPa, Gas, x2 = 0.8785 | – | 86.7
4001 kPa, Gas, x2 = 0.9873 | – | 94.5
5000 kPa, Gas, x2 = 0.8785 | – | 117.2
5000 kPa, Gas, x2 = 0.9873 | – | 135.5
5700 kPa, Gas, x2 = 0.9873 | – | 180.8
6000 kPa, Gas, x2 = 0.8785 | – | 156.7
6300 kPa, Liquid, x2 = 0.9873 | – | 750.2
7000 kPa, Liquid, x2 = 0.9873 | – | 775
7002 kPa, Gas, x2 = 0.8785 | – | 213.8
7601 kPa, Gas, x2 = 0.8785 | – | 271.4
8001 kPa, Liquid, x2 = 0.9873 | – | 799.6
9000 kPa, Liquid, x2 = 0.9873 | – | 818.4
9401 kPa, Liquid, x2 = 0.8785 | – | 526.3
10000 kPa, Liquid, x2 = 0.9873 | – | 833.7
10001 kPa, Liquid, x2 = 0.8785 | – | 579.5
11001 kPa, Liquid, x2 = 0.8785 | – | 633.1
11001 kPa, Liquid, x2 = 0.9873 | 910.2 | –
11002 kPa, Liquid, x2 = 0.9873 | – | 846.8
12000 kPa, Liquid, x2 = 0.8785 | 775.3 | –
12001 kPa, Liquid, x2 = 0.9873 | 918 | 858.3
12002 kPa, Liquid, x2 = 0.8785 | – | 669.7
13000 kPa, Liquid, x2 = 0.8785 | – | 696.3
13000 kPa, Liquid, x2 = 0.9873 | 925.4 | 868.3
13002 kPa, Liquid, x2 = 0.8785 | 790.5 | –
14000 kPa, Liquid, x2 = 0.9873 | 932.2 | 877.6
14001 kPa, Liquid, x2 = 0.8785 | 803.8 | 718.1
15001 kPa, Liquid, x2 = 0.8785 | – | 736.4
15001 kPa, Liquid, x2 = 0.9873 | 938.7 | 886.2
15002 kPa, Liquid, x2 = 0.8785 | 815.4 | –
16001 kPa, Liquid, x2 = 0.8785 | 825.4 | 752.3
16001 kPa, Liquid, x2 = 0.9873 | 944.9 | –
16002 kPa, Liquid, x2 = 0.9873 | – | 894.2
17000 kPa, Liquid, x2 = 0.8785 | 835 | 766.2
17001 kPa, Liquid, x2 = 0.9873 | 950.9 | 901.7
18000 kPa, Liquid, x2 = 0.8785 | 843.9 | 778.4
18001 kPa, Liquid, x2 = 0.9873 | – | 908.6
18003 kPa, Liquid, x2 = 0.9873 | 956.5 | –
19001 kPa, Liquid, x2 = 0.8785 | 852.1 | 789.6
19001 kPa, Liquid, x2 = 0.9873 | – | 915.2
19002 kPa, Liquid, x2 = 0.9873 | 961.9 | –
20000 kPa, Liquid, x2 = 0.8785 | – | 799.8
20001 kPa, Liquid, x2 = 0.8785 | 859.6 | –
20001 kPa, Liquid, x2 = 0.9873 | 967 | 921.4
